Test results: article PMC11239671, “GolpHCat (TMEM87A), a unique voltage-dependent cation channel in Golgi apparatus, contributes to Golgi-pH maintenance and hippocampus-dependent memory” (Nature Communications, 2024)
Numbering of substitutions follows the chain as printed.

Tests used:
TMEM87A (GolpHCat) [1] = molecular target: T1, TMEM87A (GolpHCat) (Homo sapiens, UniProt Q8NBN3); assay: cryo-EM structure at ~[…] Å with […] sodium gluconate; IC50 from whole-cell patch clamp in CHO-K1 cells; format: cell-based; design: full-length hTMEM87A, M1-E555 (isoform 1, NP_056312.2), EGFP-Twin-strep tag
T1 sequence (Q8NBN3 1-555): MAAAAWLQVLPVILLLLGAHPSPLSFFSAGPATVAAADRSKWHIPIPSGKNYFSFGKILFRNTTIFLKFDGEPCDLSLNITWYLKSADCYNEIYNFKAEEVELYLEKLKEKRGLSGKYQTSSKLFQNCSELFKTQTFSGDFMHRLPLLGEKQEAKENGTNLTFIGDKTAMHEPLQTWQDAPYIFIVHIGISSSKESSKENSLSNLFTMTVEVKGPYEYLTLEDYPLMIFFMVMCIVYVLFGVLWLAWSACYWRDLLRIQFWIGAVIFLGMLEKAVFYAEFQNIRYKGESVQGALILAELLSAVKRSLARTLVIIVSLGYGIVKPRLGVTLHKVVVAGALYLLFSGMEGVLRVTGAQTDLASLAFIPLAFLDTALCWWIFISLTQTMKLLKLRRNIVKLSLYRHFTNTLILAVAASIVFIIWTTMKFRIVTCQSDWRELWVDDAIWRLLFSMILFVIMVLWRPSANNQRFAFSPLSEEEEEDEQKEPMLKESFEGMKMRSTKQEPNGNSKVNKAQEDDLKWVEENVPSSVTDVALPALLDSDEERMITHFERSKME

TMEM87A (GolpHCat) [2] = molecular target: T2, TMEM87A (GolpHCat) (Homo sapiens, UniProt Q8NBN3, A308M); assay: cryo-EM structure at ~[…] Å; co-purified lipid density; format: binding
T2 construct: full-length hTMEM87A, M1-E555
T2 sequence (Q8NBN3 1-555 A308M): T1 sequence (Q8NBN3 1-555) with A308M

TMEM87A (GolpHCat) [3] = molecular target: T1, TMEM87A (GolpHCat); assay: cryo-EM structure at […] Å; co-purified lipid, assigned from density shape and Golgi lipid composition; format: binding; design: full-length hTMEM87A, M1-E555; modelled D38-P473

Structure (SMILES) | IC50 (TMEM87A (GolpHCat) [1]) | cryo-EM structure at ~3.1 Å; co-purified lipid density (TMEM87A (GolpHCat) [2]) | cryo-EM structure at 3.1 Å; co-purified lipid, assigned from density shape and G (TMEM87A (GolpHCat) [3])
O=C(O)[C@H](O)[C@@H](O)[C@H](O)[C@H](O)CO [gluconate] | 100 nM |  | 
CCCCCCCC/C=C\CCCCCCCC(=O)O[C@H](COC(=O)CCCCCCCCCCCCCCC)COP(=O)(O)OCCN [PE, 1-palmitoyl-2-oleoyl-sn-glycerol-3-phosphoethanolamine] |  | the PE density in hTMEM87A A308M was displaced to a position similar to that of the S6 state | PE was co-purified with hTMEM87A, suggesting that PE tightly and stably binds to TMEM87A
